From patent publication US20250171438A1 (Agios Pharmaceuticals, Inc., priority 2022, published 2025)

What follows are molecules tested against T1, human PAH with the R408W mutation (Homo sapiens, UniProt P00439, R408W) (assay: Cell Based Phenylalanine Flux Assay). Conditions: A375 cells expressing human R408W PAH; 24 hrs compound incubation; 13C-Tyrosine by LC-MS; average where tested multiple times; read-out: AC50.
T1 construct: expressed in transfected cells
T1 sequence (P00439 1-452 R408W): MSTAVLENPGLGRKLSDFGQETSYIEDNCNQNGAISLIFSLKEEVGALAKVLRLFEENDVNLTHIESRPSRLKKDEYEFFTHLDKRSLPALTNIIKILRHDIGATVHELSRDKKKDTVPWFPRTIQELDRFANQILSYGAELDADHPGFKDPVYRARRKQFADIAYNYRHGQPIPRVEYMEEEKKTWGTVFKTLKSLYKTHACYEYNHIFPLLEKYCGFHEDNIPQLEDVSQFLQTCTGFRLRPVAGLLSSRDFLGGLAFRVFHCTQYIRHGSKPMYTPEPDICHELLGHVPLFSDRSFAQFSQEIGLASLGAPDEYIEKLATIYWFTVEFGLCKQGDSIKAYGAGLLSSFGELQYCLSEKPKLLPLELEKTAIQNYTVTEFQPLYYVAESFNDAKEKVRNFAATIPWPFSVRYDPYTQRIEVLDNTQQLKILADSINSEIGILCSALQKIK

| AC50 | SMILES |
| --- | --- |
| 1000 to 5000 nM | O=C(c1ncc(-c2ccccc2)s1)N1CCc2[nH]cnc2[C@H]1c1nc2ccccc2s1 [Example 1189] |
| 1000 to 5000 nM | O=C(c1nnc(-c2c[nH]nc2C(F)(F)F)o1)N1CCc2[nH]cnc2[C@@H]1c1nc2ccccc2s1 [Example 1966, (R)-(4-(benzo[d]thiazol-2-yl)-6,7-dihydro-1H-imidazo[4,5-c]pyridin-5(4H)-yl)(5-(3-(trifluoromethyl)-1H-pyrazol-4-yl)-1,3,4-oxadiazol-2-yl)methanone] |
| < 500 nM | CN1CCN(c2nc(C(F)F)c(C(=O)N3CCc4[nH]cnc4[C@H]3c3nc4c(F)cccc4s3)o2)CC1 [Example 2023, (S)-(4-(difluoromethyl)-2-(4-methylpiperazin-1-yl)oxazol-5-yl)(4-(4-fluorobenzo[d]thiazol-2-yl)-6,7-dihydro-1H-imidazo[4,5-c]pyridin-5(4H)-yl)methanone] |
| 1000 to 5000 nM | Cc1c(-c2ncc(C(=O)N3CCc4[nH]cnc4[C@@H]3c3nc4ccccc4s3)s2)cnn1C [Example 1360, (R)-(4-(benzo[d]thiazol-2-yl)-6,7-dihydro-1H-imidazo[4,5-c]pyridin-5(4H)-yl)(2-(1,5-dimethyl-1H-pyrazol-4-yl)thiazol-5-yl)methanone] |
| 500 to 1000 nM | O=C(c1nc2c(F)cccc2s1)N1CCc2[nH]cnc2[C@H]1c1nc2ccccc2s1 [Example 1092] |
| 1000 to 5000 nM | O=C(c1cnc(-c2cnn(CC(F)(F)F)c2)o1)N1CCc2[nH]cnc2[C@@H]1c1nc2ccccc2s1 [Example 1392, (R)-(4-(benzo[d]thiazol-2-yl)-6,7-dihydro-1H-imidazo[4,5-c]pyridin-5(4H)-yl)(2-(1-(2,2,2-trifluoroethyl)-1H-pyrazol-4-yl)oxazol-5-yl)methanone] |
| 1000 to 5000 nM | O=C(c1cnc(-c2ccc(C(F)(F)F)cn2)s1)N1CCc2[nH]cnc2[C@@H]1c1nc2ccccc2s1 [Example 1350, (R)-(4-(benzo[d]thiazol-2-yl)-6,7-dihydro-1H-imidazo[4,5-c]pyridin-5(4H)-yl)(2-(5-(trifluoromethyl)pyridin-2-yl)thiazol-5-yl)methanone] |
| < 500 nM | Cn1nccc1C(=O)N1CCc2[nH]cnc2[C@H]1c1nc2ccccc2s1 [Example 1839] |
| < 500 nM | O=C(CC1CCCC1)N1CCc2[nH]cnc2[C@H]1c1nc2ccccc2[nH]1 [Example 929, (S)-1-(4-(1H-benzo[d]imidazol-2-yl)-6,7-dihydro-1H-imidazo[4,5-c]pyridin-5(4H)-yl)-2-cyclopentylethanone] |
| < 500 nM | CC(C)(O)c1nc(C(F)F)c(C(=O)N2CCc3[nH]cnc3[C@H]2c2nc3c(F)cccc3s2)o1 [Example 1773, (S)-(4-(difluoromethyl)-2-(2-hydroxypropan-2-yl)oxazol-5-yl)(4-(4-fluorobenzo[d]thiazol-2-yl)-6,7-dihydro-1H-imidazo[4,5-c]pyridin-5(4H)-yl)methanone] |
| 1000 to 5000 nM | O=C(c1cnn(C2CC2)c1Cl)N1CCc2[nH]cnc2[C@@H]1c1nc2c(F)cccc2s1 [Example 1970, (R)-(5-chloro-1-cyclopropyl-1H-pyrazol-4-yl)(4-(4-fluorobenzo[d]thiazol-2-yl)-6,7-dihydro-1H-imidazo[4,5-c]pyridin-5(4H)-yl)methanone] |
| 1000 to 5000 nM | O=C(c1cnc(NC2CC2)s1)N1CCc2[nH]cnc2[C@@H]1c1nc2ccccc2s1 [Example 1184, (R)-(4-(benzo[d]thiazol-2-yl)-6,7-dihydro-1H-imidazo[4,5-c]pyridin-5(4H)-yl)(2-(cyclopropylamino)thiazol-5-yl)methanone] |
| 1000 to 5000 nM | Cn1cc(-c2nnc(C(=O)N3CCc4[nH]cnc4[C@@H]3c3nc4ccccc4s3)o2)cn1 [Example 1461, (R)-(4-(benzo[d]thiazol-2-yl)-6,7-dihydro-1H-imidazo[4,5-c]pyridin-5(4H)-yl)(5-(1-methyl-1H-pyrazol-4-yl)-1,3,4-oxadiazol-2-yl)methanone] |
| 1000 to 5000 nM | O=C(c1cnc(-c2ccccn2)s1)N1CCc2[nH]cnc2[C@@H]1c1nc2ccccc2s1 [Example 1206, (R)-(4-(benzo[d]thiazol-2-yl)-6,7-dihydro-1H-imidazo[4,5-c]pyridin-5(4H)-yl)(2-(pyridin-2-yl)thiazol-5-yl)methanone] |

Further lines, the molecule ahead of its results:

| SMILES | AC50 |
| --- | --- |
| O=C(c1nnc(-c2ncccc2F)o1)N1CCc2[nH]cnc2[C@@H]1c1nc2ccccc2s1 [Example 1709, (R)-(4-(benzo[d]thiazol-2-yl)-6,7-dihydro-1H-imidazo[4,5-c]pyridin-5(4H)-yl)(5-(3-fluoropyridin-2-yl)-1,3,4-oxadiazol-2-yl)methanone] | < 500 nM |
| CC(F)(F)c1ncc(C(=O)N2CCc3[nH]cnc3[C@H]2c2nc3c(F)cccc3s2)s1 [Example 1513] | < 500 nM |
| Cc1ncoc1C(=O)N1CCc2[nH]cnc2[C@@H]1c1nc2ccccc2[nH]1 [Example 992, (R)-(4-(1H-benzo[d]imidazol-2-yl)-6,7-dihydro-1H-imidazo[4,5-c]pyridin-5(4H)-yl)(4-methyloxazol-5-yl)methanone] | > 5000 nM |
| O=C(c1nncs1)N1CCc2[nH]cnc2[C@H]1c1nc2cccc(F)c2s1 [Example 1266, (S)-(4-(7-fluorobenzo[d]thiazol-2-yl)-6,7-dihydro-1H-imidazo[4,5-c]pyridin-5(4H)-yl)(1,3,4-thiadiazol-2-yl)methanone] | < 500 nM |
| Cc1nnc(C(=O)N2CC3(CC3)c3[nH]cnc3[C@H]2c2nc3ccccc3s2)o1 [Example 1686, (S)-(4′-(benzo[d]thiazol-2-yl)spiro[cyclopropane-1,7′-imidazo[4,5-c]pyridin]-5′(1′H,4′H,6′H)-yl)(5-methyl-1,3,4-oxadiazol-2-yl)methanone] | 500 to 1000 nM |
| Cc1nnc(C(=O)N2CCc3[nH]cnc3[C@@H]2c2nc3cccc(F)c3s2)s1 [Example 1332, (R)-(4-(7-fluorobenzo[d]thiazol-2-yl)-6,7-dihydro-1H-imidazo[4,5-c]pyridin-5(4H)-yl)(5-methyl-1,3,4-thiadiazol-2-yl)methanone] | 1000 to 5000 nM |
| Cn1ncc(C(=O)N2CCc3[nH]cnc3[C@@H]2c2nc3ccccc3s2)c1C(F)F [Example 1820, (R)-(4-(benzo[d]thiazol-2-yl)-6,7-dihydro-1H-imidazo[4,5-c]pyridin-5(4H)-yl)(5-(difluoromethyl)-1-methyl-1H-pyrazol-4-yl)methanone] | > 5000 nM |
| O=C(c1cnn2ccccc12)N1CCc2[nH]cnc2[C@H]1c1nc2ccc(Cl)cc2[nH]1 [Example 936, (S)-(4-(6-chloro-1H-benzo[d]imidazol-2-yl)-6,7-dihydro-1H-imidazo[4,5-c]pyridin-5(4H)-yl)(pyrazolo[1,5-a]pyridin-3-yl)methanone] | 1000 to 5000 nM |
| [2H][C@@]1(c2nc3ccccc3s2)c2nc[nH]c2CCN1C(=O)c1ocnc1C [Example 2159, [(4S)-4-(1,3-benzothiazol-2-yl)-4-deuterio-6,7-dihydro-1H-imidazo[4,5-c]pyridin-5-yl]-(4-methyloxazol-5-yl)methanone] | < 500 nM |
| O=C(c1cnn2cc(F)ccc12)N1CCc2[nH]cnc2[C@H]1c1nc2c(F)cccc2s1 [Example 1215, (S)-(4-(4-fluorobenzo[d]thiazol-2-yl)-6,7-dihydro-1H-imidazo[4,5-c]pyridin-5(4H)-yl)(6-fluoropyrazolo[1,5-a]pyridin-3-yl)methanone] | < 500 nM |
| O=C(CC1CC1)N1CCc2[nH]cnc2[C@H]1c1nc2ccccc2[nH]1 [Example 931, (S)-1-(4-(1H-benzo[d]imidazol-2-yl)-6,7-dihydro-1H-imidazo[4,5-c]pyridin-5(4H)-yl)-2-cyclopropylethanone] | < 500 nM |
| O=C(c1oc(N2CCOCC2)nc1C(F)F)N1CCc2[nH]cnc2[C@H]1c1nc2c(F)cccc2s1 [Example 2025, (S)-(4-(difluoromethyl)-2-morpholinooxazol-5-yl)(4-(4-fluorobenzo[d]thiazol-2-yl)-6,7-dihydro-1H-imidazo[4,5-c]pyridin-5(4H)-yl)methanone] | < 500 nM |

Same assay, conditions: A375 cells expressing human R408W PAH; 24 hrs with compound; 13C-Tyrosine by LC-MS; average where tested multiple times; read-out: AC50

| AC50 | SMILES |
| --- | --- |
| 1000 to 5000 nM | Cc1nc(CCN2CC(F)C2)oc1C(=O)N1CCc2[nH]cnc2C1c1nc2ccccc2s1 (centres unmarked) |
| > 5000 nM | Cc1ncc(C(=O)N2CCc3[nH]cnc3C2c2nc3ccccc3s2)s1 (centres unmarked) |
| 1000 to 5000 nM | O=C(c1cnn2cccc(F)c12)N1CCc2[nH]cnc2[C@H]1c1nc2ccccc2[nH]1 [(S)-(4-(1H-benzo[d]imidazol-2-yl)-1,4,6,7-tetrahydro-5H-imidazo[4,5-c]pyridin-5-yl)(4-fluoropyrazolo[1,5-a]pyridin-3-yl)methanone] |
| 1000 to 5000 nM | O=C(c1ccccn1)N1CCc2[nH]cnc2[C@H]1c1nc2ccccc2[nH]1 [(S)-(4-(1H-benzo[d]imidazol-2-yl)-1,4,6,7-tetrahydro-5H-imidazo[4,5-c]pyridin-5-yl)(pyridin-2-yl)methanone] |
| > 5000 nM | CC(C)(O)c1cc(C(=O)N2CCc3[nH]cnc3C2c2nc3ccccc3s2)sn1 (centres unmarked) |

More lines, now with the values behind:

| SMILES | AC50 |
| --- | --- |
| O=C(Cc1cscn1)N1CCc2[nH]cnc2[C@H]1c1nc2ccccc2s1 (single isomer, unassigned) | 1000 to 5000 nM |
| O=C(Cc1nc(C(F)(F)F)cs1)N1CCc2[nH]cnc2C1c1nc2ccc(Br)cc2[nH]1 (centres unmarked) | > 5000 nM |
| O=C(c1cnn2ccccc12)N1CCc2[nH]cnc2C1c1nc2ccc(F)cc2[nH]1 (centres unmarked) | > 5000 nM |

Same assay, conditions: AC50, A375 cells expressing human R408W PAH; 24 hrs with compound; 13C-Tyrosine by LC-MS; average where tested multiple times

| SMILES | AC50 |
| --- | --- |
| Cc1nnc(C(=O)N2CCc3[nH]cnc3C2c2nc3ccc(Cl)cc3[nH]2)s1 (centres unmarked) | > 5000 nM |
